From patent publication US12678411B2, “Nanoformulations of pazopanib, compositions comprising the same and methods of treating osteoarthritis” (The United States Government as represented by the …, priority 2021, dated 2026)

Key:
[1] = system: mice with knee joint OA (PMM); assay: Mechanical allodynia (von Frey) in surgery-induced (PMM) knee OA mice; format: in vivo; settings: IA 70 μg/kg twice per week, started at inflammatory pain stage
Protocol: Drugs are intraarticularly injected (twice/week) at 4 weeks after surgery (early OA stage). *p<0.05; **p<0.01; ***p<0.001; ****p<0.0001. PMM=partial medial meniscectomy.
2006; 33(2):348-354; and Kroin J S, et al. Gene. 2016. 10; 591(1): 1-5). Next, outcomes between IA injection of ZD6474 (also known as vandetanib, a selective inhibitor of Flk1, 70 μg/kg, injection frequency: twice per week) and pazopanib (an inhibitor of both Flt1 and Flk1, 70 μg/kg, injection frequency: twice per week) were compared. Twice perweek IA injection of these drugs was started at an inflammatory pain stage (within a week post-surgery) and continued for 12 weeks. After 12 weeks, joints were harvested, histopathological analyses performed, and pathological grading quantified by standard Osteoarthritis Research Society International (OARSI) scoring (1: Healthy, 5: Highly pathologic) (K. O. Vasquez and J. D. Peterson. J Pharmacol Exp Ther 2017, 361:87-98).
Nanoparticles of PEG-PCL (5k-b-6.5k) encapsulating pazopanib were prepared by the flash nanoprecipitation method using a multi-inlet vortex mixer (MIVM) (FIG. 13, nano-PAZ(I)). The resulting composition was intraarticularly injected into the knee joint of mice at the inflammatory pain stage (at one week after OA induction by surgery).

mice [2] = assay: Mechanical hyperalgesia after intrathecal injection in mice; format: in vivo; settings: intrathecal (i.t.) injection
Protocol: VEGF-A induces pain hypersensitivity through effects in the peripheral nervous system (PNS) and central nervous system (CNS). IA injection of Flt1 ligand (but not Flk1 ligand) caused mechanical hypersensitivity within 30 min (FIG. 2), showing that Flt1 ligands can directly activate the PNS to induce pain. Additionally, it was reported that animals with chronic OA pain had increased spinal levels of VEGF-A (FIG. 10). […] Given the similar dose (10 ng) and time course of mechanical hyperalgesia following IA injection (FIG. 2) and i.t. injections of VEGF-A (FIG. 11), VEGF signaling appears to be equally able to induce pain hypersensitivity in the PNS and CNS.

mice [3] = settings: cited from earlier work

Molecule: COc1cc2c(Nc3ccc(Br)cc3F)ncnc2cc1OCC1CCN(C)CC1 [ZD6474, vandetanib]
- time after start of drug injection at which reduction in OA pain was seen [1]: 5 weeks

Molecule: NGF: nerve growth factor, a well-known OA pain mediator
- pain response (mechanical hyperalgesia) (mice [2]): no pain response
- mechanical allodynia after IA injection (mice [3]): acutely increased mechanical allodynia
